From patent US7138361B2, “Herbicidal heterocycles” (E. I. du Pont de Nemours and Company, priority 2000, dated 2006)

Experiments:
Assay type in all cases: in vivo
[1] = test system: Surinam grass (Brachiaria decumbens); assay: Test B postemergence; settings: 13 to 15 days
How it was run: (§1)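 Pre: seeded pots sprayed, chemical in non-phytotoxic solvent/surfactant mix. Post: plants 2–18 cm, 1–4 leaf, same formulation. Greenhouse 13–15 d; visual % control vs untreated, 0–100 scale.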

[2] = test system: barnyardgrass (Echinochloa crus-galli); assay: Test B postemergence; settings: 13 to 15 days
How it was run: as §1

[3] = test system: blackgrass (Alopecurus myosuroides); assay: Test B postemergence; settings: 13 to 15 days
How it was run: as §1

[4] = test system: cocklebur (Xanthium strumarium); assay: Test B postemergence; settings: 13 to 15 days
How it was run: as §1

corn (Zea mays) [5] = assay: Test B postemergence; settings: 13 to 15 days
How it was run: as §1

[6] = test system: crabgrass (Digitaria sanguinalis); assay: Test B postemergence; settings: 13 to 15 days
How it was run: as §1

[7] = test system: giant foxtail (Setaria faberii); assay: Test B postemergence; settings: 13 to 15 days
How it was run: as §1

[8] = test system: lambsquarters (Chenopodium album); assay: Test B postemergence; settings: 13 to 15 days
How it was run: as §1

[9] = test system: morning glory (Ipomoea hederacea); assay: Test B postemergence; settings: 13 to 15 days
How it was run: as §1

[10] = test system: pigweed (Amaranthus retroflexus); assay: Test B postemergence; settings: 13 to 15 days
How it was run: as §1

[11] = test system: velvetleaf (Abutilon theophrasti); assay: Test B postemergence; settings: 13 to 15 days
How it was run: as §1

[12] = test system: wheat (Triticum aestivum); assay: Test B postemergence; settings: 13 to 15 days
How it was run: as §1

wild oat (Avena fatua) = assay: Test B postemergence; settings: 13 to 15 days
How it was run: as §1

[13] = test system: Surinam grass (Brachiaria decumbens); assay: Test B preemergence; settings: scale 0 to 100, 0 no effect, 100 complete control
How it was run: as §1

[14] = test system: barnyardgrass (Echinochloa crus-galli); assay: Test B preemergence; settings: scale 0 to 100, 0 no effect, 100 complete control
How it was run: as §1

[15] = test system: cocklebur (Xanthium strumarium); assay: Test B preemergence; settings: scale 0 to 100, 0 no effect, 100 complete control
How it was run: as §1

corn (Zea mays) [16] = assay: Test B preemergence; settings: scale 0 to 100, 0 no effect, 100 complete control
How it was run: as §1

[17] = test system: crabgrass (Digitaria sanguinalis); assay: Test B preemergence; settings: scale 0 to 100, 0 no effect, 100 complete control
How it was run: as §1

[18] = test system: giant foxtail (Setaria faberii); assay: Test B preemergence; settings: scale 0 to 100, 0 no effect, 100 complete control
How it was run: as §1

[19] = test system: lambsquarters (Chenopodium album); assay: Test B preemergence; settings: scale 0 to 100, 0 no effect, 100 complete control
How it was run: as §1

[20] = test system: morning glory (Ipomoea hederacea); assay: Test B preemergence; settings: Preemergence, Rate 500 g/ha; scale 0 to 100, 0 no effect, 100 complete control
How it was run: as §1

[21] = test system: pigweed (Amaranthus retroflexus); assay: Test B preemergence; settings: Preemergence, Rate 500 g/ha; scale 0 to 100, 0 no effect, 100 complete control
How it was run: as §1

rice (Oryza saliva) = assay: Test B preemergence; settings: Preemergence, Rate 500 g/ha; scale 0 to 100, 0 no effect, 100 complete control
How it was run: as §1

[22] = test system: velvetleaf (Abutilon theophrasti); assay: Test B preemergence; settings: Preemergence, Rate 500 g/ha; scale 0 to 100, 0 no effect, 100 complete control
How it was run: as §1

Nightshade = assay: Test C preemergence; settings: Rate 250 g/ha, visual evaluation after 12 to 14 days
Sunflower = assay: Test C preemergence; settings: Rate 125 g/ha, scale 0 to 100, 0 no effect, 100 complete control
[23] = Rate 125 g/ha, scale 0 (no effect) to 100 (complete control)
[24] = Rate 500 g/ha, scale 0 to 100, 0 is no effect, 100 is complete control

SMILES: O=C1C(n2ccc(C3CCC3)n2)SCN1c1cccc(OC(F)(F)F)c1 (stereo not shown) [Compound 38]
- Plant response rating, Surinam grass [1, 23]: 0
- Plant response rating, Surinam grass [1, 24]: 0
- Plant response rating, Barnyardgrass [2, 23]: 100
- Plant response rating, Barnyardgrass [2, 24]: 100
- Plant response rating, Blackgrass [3, 23]: 0
- Plant response rating, Blackgrass [3, 24]: 0
- Plant response rating, Cocklebur [4, 23]: 40
- Plant response rating, Cocklebur [4, 24]: 80
- Plant response rating, Corn (corn (Zea mays) [5]; [23]): 0
- Plant response rating, Corn (corn (Zea mays) [5]; [24]): 0
- Plant response rating, Crabgrass [6, 23]: 60
- Plant response rating, Crabgrass [6, 24]: 100
- Plant response rating, Foxtail, Giant [7, 23]: 30
- Plant response rating, Foxtail, Giant [7, 24]: 80
- Plant response rating, Lambsquarters [8, 23]: 80
- Plant response rating, Lambsquarters [8, 24]: 90
- Plant response rating, Morningglory [9, 23]: 10
- Plant response rating, Morningglory [9, 24]: 20
- Plant response rating, Pigweed [10, 23]: 60
- Plant response rating, Pigweed [10, 24]: 80
- Plant response rating, Velvetleaf [11, 23]: 0
- Plant response rating, Velvetleaf [11, 24]: 70
- Plant response rating, Wheat [12, 23]: 0
- Plant response rating, Wheat [12, 24]: 0
- Plant response rating, Wild Oat (wild oat (Avena fatua); [23]): 0
- Plant response rating, Wild Oat (wild oat (Avena fatua); [24]): 0
- Plant response rating, Surinam grass ([13]; Preemergence, Rate 500 g/ha): 60
- Plant response rating, Surinam grass ([13]; preemergence, Rate 125 g/ha): 0
- Plant response rating, Barnyardgrass ([14]; Preemergence, Rate 500 g/ha): 100
- Plant response rating, Barnyardgrass ([14]; preemergence, Rate 125 g/ha): 70
- Plant response rating, Cocklebur ([15]; Preemergence, Rate 500 g/ha): 0
- Plant response rating, Corn (corn (Zea mays) [16]; Preemergence, Rate 500 g/ha): 0
- Plant response rating, Corn (corn (Zea mays) [16]; preemergence, Rate 125 g/ha): 0
- Plant response rating, Crabgrass ([17]; Preemergence, Rate 500 g/ha): 100
- Plant response rating, Crabgrass ([17]; preemergence, Rate 125 g/ha): 0
- Plant response rating, Foxtail, Giant ([18]; Preemergence, Rate 500 g/ha): 100
- Plant response rating, Foxtail, Giant ([18]; preemergence, Rate 125 g/ha): 0
- Plant response rating, Lambsquarters ([19]; Preemergence, Rate 500 g/ha): 100
- Plant response rating, Lambsquarters ([19]; preemergence, Rate 125 g/ha): 100
- Plant response rating, Morningglory [20]: 0
- Plant response rating, Pigweed [21]: 100
- Plant response rating, Rice (rice (Oryza saliva)): 10
- Plant response rating, Velvetleaf [22]: 0
- Plant response rating (0 to 100), Nightshade (Nightshade): 60
- Plant response rating, Sunflower (Sunflower): 0

SMILES: O=C1C(n2ccc(C3CCC3)n2)OCN1c1cccc(C(F)(F)F)c1 (stereo not shown) [Compound 39]
- Plant response rating, Surinam grass [1, 23]: 0
- Plant response rating, Surinam grass [1, 24]: 0
- Plant response rating, Barnyardgrass [2, 23]: 0
- Plant response rating, Barnyardgrass [2, 24]: 100
- Plant response rating, Blackgrass [3, 23]: 0
- Plant response rating, Blackgrass [3, 24]: 0
- Plant response rating, Cocklebur [4, 23]: 0
- Plant response rating, Cocklebur [4, 24]: 0
- Plant response rating, Corn (corn (Zea mays) [5]; [23]): 0
- Plant response rating, Corn (corn (Zea mays) [5]; [24]): 10
- Plant response rating, Crabgrass [6, 23]: 0
- Plant response rating, Crabgrass [6, 24]: 70
- Plant response rating, Foxtail, Giant [7, 23]: 0
- Plant response rating, Foxtail, Giant [7, 24]: 0
- Plant response rating, Lambsquarters [8, 23]: 70
- Plant response rating, Lambsquarters [8, 24]: 90
- Plant response rating, Morningglory [9, 23]: 0
- Plant response rating, Morningglory [9, 24]: 0
- Plant response rating, Pigweed [10, 23]: 60
- Plant response rating, Pigweed [10, 24]: 90
- Plant response rating, Velvetleaf [11, 23]: 0
- Plant response rating, Velvetleaf [11, 24]: 0
- Plant response rating, Wheat [12, 23]: 0
- Plant response rating, Wheat [12, 24]: 0
- Plant response rating, Wild Oat (wild oat (Avena fatua); [23]): 0
- Plant response rating, Wild Oat (wild oat (Avena fatua); [24]): 0
- Plant response rating, Surinam grass ([13]; Preemergence, Rate 500 g/ha): 20
- Plant response rating, Surinam grass ([13]; preemergence, Rate 125 g/ha): 20
- Plant response rating, Barnyardgrass ([14]; Preemergence, Rate 500 g/ha): 100
- Plant response rating, Barnyardgrass ([14]; preemergence, Rate 125 g/ha): 50
- Plant response rating, Cocklebur ([15]; Preemergence, Rate 500 g/ha): 0
- Plant response rating, Cocklebur ([15]; preemergence, Rate 125 g/ha): 0
- Plant response rating, Corn (corn (Zea mays) [16]; Preemergence, Rate 500 g/ha): 0
- Plant response rating, Corn (corn (Zea mays) [16]; preemergence, Rate 125 g/ha): 0
- Plant response rating, Crabgrass ([17]; Preemergence, Rate 500 g/ha): 100
- Plant response rating, Crabgrass ([17]; preemergence, Rate 125 g/ha): 0
- Plant response rating, Foxtail, Giant ([18]; Preemergence, Rate 500 g/ha): 100
- Plant response rating, Foxtail, Giant ([18]; preemergence, Rate 125 g/ha): 30
- Plant response rating, Lambsquarters ([19]; Preemergence, Rate 500 g/ha): 100
- Plant response rating, Lambsquarters ([19]; preemergence, Rate 125 g/ha): 100
- Plant response rating, Morningglory [20]: 0
- Plant response rating, Pigweed [21]: 100
- Plant response rating, Rice (rice (Oryza saliva)): 0
- Plant response rating, Velvetleaf [22]: 0
- Plant response rating (0 to 100), Nightshade (Nightshade): 0
- Plant response rating, Sunflower (Sunflower): 0
